We go through 30 compounds from patent US8362000B2, “Azetidinyl diamides as monoacylglycerol lipase inhibitors” (Janssen Pharmaceutica NV, priority 2009, dated 2013).

The structures appear in SMILES notation. Like-named read-outs stand apart in the source and are kept apart here.

In experiment [1] the target is T1, mutant MGL (Homo sapiens, UniProt Q99685, L169S/L176S).
T1 sequence (Q99685 1-303 L169S/L176S): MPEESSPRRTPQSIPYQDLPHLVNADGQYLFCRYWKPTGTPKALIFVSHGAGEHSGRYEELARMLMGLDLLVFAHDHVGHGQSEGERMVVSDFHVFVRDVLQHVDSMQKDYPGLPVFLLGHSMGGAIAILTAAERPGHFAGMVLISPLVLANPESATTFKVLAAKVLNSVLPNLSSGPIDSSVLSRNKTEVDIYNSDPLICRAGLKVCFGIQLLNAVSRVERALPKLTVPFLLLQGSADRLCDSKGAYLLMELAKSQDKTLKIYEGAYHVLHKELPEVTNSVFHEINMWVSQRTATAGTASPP
Kind of experiment: MGL ThermoFluor assay - mutant. Type of experiment: binding.

For experiment [2], the target named is T2, MGL (Rattus norvegicus, UniProt Q8R431).
T2 construct: one g rat brain was homogenized using a Polytron homogenizer; from tissue; host or cells: rat brain homogenate
T2 sequence (Q8R431 1-303): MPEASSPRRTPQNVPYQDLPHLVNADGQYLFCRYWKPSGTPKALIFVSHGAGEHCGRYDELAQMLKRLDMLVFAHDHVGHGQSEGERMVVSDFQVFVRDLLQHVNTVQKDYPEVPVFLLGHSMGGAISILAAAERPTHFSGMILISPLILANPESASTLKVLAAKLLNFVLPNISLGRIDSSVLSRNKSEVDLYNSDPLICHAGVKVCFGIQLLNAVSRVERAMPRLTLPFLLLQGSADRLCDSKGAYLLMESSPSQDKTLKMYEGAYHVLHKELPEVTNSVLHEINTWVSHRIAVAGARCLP
Kind of experiment: 2-AG accumulation assay in rat brain homogenate. It is filed as biochemical. The conditions noted are these: rat brain homogenate, 2-AG accumulation as percent of vehicle; for 2-AG accumulation, % of vehicle control at 1 µM: read-out: Rat Brain 2AG % VehCntrl (%) @ 1 μM; for 2-AG accumulation, % of vehicle control at 10 µM: compound 10 μM, read-out: Rat Brain 2AG % VehCntrl (%) @ 10 μM.

Setting [3] is: ThermoFluor concentration-response, read-out: MGL mutant ThermoFluor Kd.
Where [4] appears, read: ThermoFluor thermal stability binding assay, read-out: MGL mutant ThermoFluor Kd.

Turning to `O=C(c1ccc(Oc2ccccn2)c(F)c1)N1CC(N2CCN(C(=O)c3nccs3)CC2)C1` [Cpd 909], the Kd in experiment [1] (setting [3]) came out at 0.325 µM. Moreover, in experiment [2] (compound 1 μM), the 2-AG accumulation, % of vehicle control at 1 µM is 144%.
Turning to `Cc1cc(C(=O)N2CC(N3CCN(C(=O)c4ccccc4)CC3)C2)ccc1-c1ccc(F)c(Cl)c1` [Cpd 259, 1-{1-[(3′-Chloro-4′-fluoro-2-methylbiphenyl-4-yl)carbonyl]azetidin-3-yl}-4-(phenylcarbonyl)piperazine], in experiment [1] (setting [4]), the Kd was 0.0077 µM. In addition, the 2-AG accumulation, % of vehicle control at 1 µM in experiment [2] (compound 1 μM) amounted to 156%.
Regarding `COc1cncc(Oc2ccc(C(=O)N3CC(N4CCN(C(=O)c5nccs5)CC4)C3)cc2)c1` [Cpd 904], the Kd in experiment [1] (setting [3]) stood at 0.633 µM. Further, in experiment [2] (compound 1 μM), the 2-AG accumulation, % of vehicle control at 1 µM came to 392%.
As for `O=C(c1ccc(C2CCCCC2)cc1)N1CC(N2CCN(C(=O)c3ccco3)CC2)C1` [Cpd 2, 1-{1-[(4-Cyclohexylphenyl)carbonyl]azetidin-3-yl}-4-(furan-2-ylcarbonyl)piperazine], the Kd in experiment [1] (setting [3]) amounted to 0.00049 µM. Moreover, in experiment [2], the 2-AG accumulation, % of vehicle control at 10 µM is 911%.
In the case of `N#Cc1cccc(-n2ccc3cc(C(=O)N4CC(N5CCN(C(=O)c6nccs6)CC5)C4)ccc32)c1` [Cpd 1113], in experiment [1] (ThermoFluor, compound concentration measured by qNMR, read-out: MGL mutant ThermoFluor qKd (μM) (using qNMR conc.)), the Kd is 0.01 µM. Also, the 2-AG accumulation, % of vehicle control at 1 µM in experiment [2] (compound 1 μM) was 819%.
For the compound `O=C(c1ccccc1)N1CCN(C2CN(C(=O)c3ccc(-c4ccc(C(F)(F)F)cc4)s3)C2)CC1` [Cpd 347], the Kd in experiment [1] (setting [4]) was 0.125 µM. Also, in experiment [2] (compound 1 μM), the 2-AG accumulation, % of vehicle control at 1 µM worked out at 125%.
The matching figures for `O=C(c1cscn1)N1CCN(C2CN(C(=O)c3cc4cccc(C(F)(F)F)c4s3)C2)CC1` [Cpd 332, 1-(1,3-Thiazol-4-ylcarbonyl)-4-(1-{[7-(trifluoromethyl)-1-benzothiophen-2-yl]carbonyl}azetidin-3-yl)piperazine]: 0.109 µM and 182%.
For `O=C(c1ccc2nc(-c3cccc(F)c3)sc2c1)N1CC(N2CCN(C(=O)c3nccs3)CC2)C1` [Cpd 1131] the same measures were 0.016 µM and 563%.
As to `O=C(c1ccccc1)N1CCN(C2CN(C(=O)c3ccc(-c4cccc(F)c4)cc3)C2)CC1` [Cpd 195, 1-{1-[(3′-Fluorobiphenyl-4-yl)carbonyl]azetidin-3-yl}-4-(phenylcarbonyl)piperazine], in experiment [2], the 2-AG accumulation, % of vehicle control at 10 µM was found to be 365%.
`O=C(c1ccccc1)N1CCN(C2CN(C(=O)c3ccc4c(ccn4-c4ccccc4)c3)C2)CC1` [Cpd 128, 1-Phenyl-5-({3-[4-(phenylcarbonyl)piperazin-1-yl]azetidin-1-yl}carbonyl)-1H-indole]: the 2-AG accumulation, % of vehicle control at 10 µM in experiment [2] is 688%.
Regarding `O=C(c1ccc(SCc2cccc(C(F)(F)F)c2)cc1)N1CC(N2CCN(C(=O)c3nccs3)CC2)C1` [Cpd 973], the 2-AG accumulation, % of vehicle control at 1 µM in experiment [2] (compound 1 μM) was 806%.
In the case of `O=C(c1cscn1)N1CCN(C2CN(C(=O)c3cc4c(C(F)(F)F)cccc4s3)C2)CC1` [Cpd 334, 1-(1,3-Thiazol-4-ylcarbonyl)-4-(1-{[4-(trifluoromethyl)-1-benzothiophen-2-yl]carbonyl}azetidin-3-yl)piperazine], the 2-AG accumulation, % of vehicle control at 1 µM in experiment [2] (compound 1 μM) was 259%.
In the case of `Cc1c(C(=O)N2CC(N3CCN(C(=O)c4ccns4)CC3)C2)sc2cc(C(F)(F)F)ccc12` [Cpd 692], in experiment [2] (compound 1 μM), the “Rat Brain 2AG % VehCntrl (%) @ 1 μM” value amounted to 284%.
Take `CC(C)(C)OC(=O)N1CCc2cc(C(=O)N3CC(N4CCN(C(=O)c5ccccc5)CC4)C3)ccc2C1` [Cpd 319, tert-Butyl 6-({3-[4-(phenylcarbonyl)piperazin-1-yl]azetidin-1-yl}carbonyl)-3,4-dihydroisoquinoline-2(1H)-carboxylate]: the 2-AG accumulation, % of vehicle control at 10 µM in experiment [2] was determined as 396%.
With `O=C(c1ccc2c(c1)CCCN2C(=O)c1ccc(C(F)(F)F)cc1)N1CC(N2CCN(C(=O)c3nccs3)CC2)C1` [Cpd 365, 6-({3-[4-(1,3-Thiazol-2-ylcarbonyl)piperazin-1-yl]azetidin-1-yl}carbonyl)-1-(4-trifluoromethylbenzoyl)-1,2,3,4-tetrahydroquinoline], in experiment [2] (compound 1 μM), the 2-AG accumulation, % of vehicle control at 1 µM was 971%.
With `O=C(c1ccccc1)N1CCN(C2CN(C(=O)c3ccc4c(c3)CCN(C(=O)C3CCCCC3)C4)C2)CC1` [Cpd 350, 2-(Cyclohexylcarbonyl)-6-({3-[4-(phenylcarbonyl)piperazin-1-yl]azetidin-1-yl}carbonyl)-1,2,3,4-tetrahydroisoquinoline], the 2-AG accumulation, % of vehicle control at 10 µM in experiment [2] is 498%.
On to `O=C(c1ccc(-c2cccc3ncccc23)cc1)N1CC(N2CCN(C(=O)c3nccs3)CC2)C1` [Cpd 184, 5-[4-({3-[4-(1,3-Thiazol-2-ylcarbonyl)piperazin-1-yl]azetidin-1-yl}carbonyl)phenyl]quinoline], for which the 2-AG accumulation, % of vehicle control at 10 µM in experiment [2] is 956%.
On the same count and under the same terms, the value for `O=C(c1ccccc1)N1CCN(C2CN(C(=O)c3ccc(OC4CCCCC4)cc3)C2)CC1` [Cpd 435, 1-(1-{[4-(Cyclohexyloxy)phenyl]carbonyl}azetidin-3-yl)-4-(phenylcarbonyl)piperazine] was 198%; that for `O=C(c1ccc(-c2ccccc2C(F)(F)F)cc1)N1CC(N2CCN(C(=O)c3nccs3)CC2)C1` [Cpd 147, 1-(1,3-Thiazol-2-ylcarbonyl)-4-(1-{[2′-(trifluoromethyl)biphenyl-4-yl]carbonyl}azetidin-3-yl)piperazine] was 676%; that for `O=C(CCc1ccccc1Cl)N1CC(N2CCN(C(=O)c3nccs3)CC2)C1` [Cpd 273, 1-{1-[3-(2-Chlorophenyl)propanoyl]azetidin-3-yl}-4-(1,3-thiazol-2-ylcarbonyl)piperazine] was 623%.
`NC(=O)c1ccc(-n2ccc3cc(C(=O)N4CC(N5CCN(C(=O)c6nccs6)CC5)C4)ccc32)cc1` [Cpd 1171]: the 2-AG accumulation, % of vehicle control at 1 µM in experiment [2] (compound 1 μM) was determined as 839%.
Take `CC(C)Oc1cccc(-c2ccc(C(=O)N3CC(N4CCN(C(=O)c5ccccc5)CC4)C3)cc2)c1` [Cpd 188, 1-(1-{[3′-(1-Methylethoxy)biphenyl-4-yl]carbonyl}azetidin-3-yl)-4-(phenylcarbonyl)piperazine]: in experiment [2], the 2-AG accumulation, % of vehicle control at 10 µM worked out at 506%.
The same measure, in the same setting: the figure for `COC(=O)C=Cc1ccc(-c2ccc(C(=O)N3CC(N4CCN(C(=O)c5nccs5)CC4)C3)cc2)cc1` [Cpd 224, Methyl 3-[4′-({3-[4-(1,3-thiazol-2-ylcarbonyl)piperazin-1-yl]azetidin-1-yl}carbonyl)biphenyl-4-yl]prop-2-enoate] is 906%; for `Nc1cccc(-c2ccc(C(=O)N3CC(N4CCN(C(=O)c5nccs5)CC4)C3)cc2)c1` [Cpd 230, 4′-({3-[4-(1,3-Thiazol-2-ylcarbonyl)piperazin-1-yl]azetidin-1-yl}carbonyl)biphenyl-3-amine] it is 567%.
Take `O=C(c1ccccc1)N1CCN(C2CN(C(=O)c3ccc4c(ccn4-c4ccc(F)cc4F)c3)C2)CC1` [Cpd 579, 1-(2,4-Difluorophenyl)-5-({3-[4-(phenylcarbonyl)piperazin-1-yl]azetidin-1-yl}carbonyl)-1H-indole]: in experiment [2] (compound 1 μM), the 2-AG accumulation, % of vehicle control at 1 µM was 265%.
On to `O=C(c1ccc(-c2ccc(O)cc2)cc1)N1CC(N2CCN(C(=O)c3nccs3)CC2)C1` [Cpd 211, 4′-({3-[4-(1,3-Thiazol-2-ylcarbonyl)piperazin-1-yl]azetidin-1-yl}carbonyl)biphenyl-4-ol], for which, in experiment [2], the 2-AG accumulation, % of vehicle control at 10 µM turned out to be 725%.
On the same count and under the same terms, the value for `O=C(c1ccccc1)N1CCN(C2CN(C(=O)c3ccc(-c4ccc(C(F)(F)F)cc4)cc3)C2)CC1` [Cpd 75, 1-(Phenylcarbonyl)-4-(1-{[4′-(trifluoromethyl)biphenyl-4-yl]carbonyl}azetidin-3-yl)piperazine] was 193%; that for `Cc1nc(-c2cccs2)sc1C(=O)N1CC(N2CCN(C(=O)c3nccs3)CC2)C1` [Cpd 134, 1-{1-[(4-Methyl-2-thiophen-2-yl-1,3-thiazol-5-yl)carbonyl]azetidin-3-yl}-4-(1,3-thiazol-2-ylcarbonyl)piperazine] was 582%; that for `CC(C)COc1cccc(-c2ccc(C(=O)N3CC(N4CCN(C(=O)c5nccs5)CC4)C3)cc2)c1` [Cpd 221, 1-(1-{[3′-(2-Methylpropoxy)biphenyl-4-yl]carbonyl}azetidin-3-yl)-4-(1,3-thiazol-2-ylcarbonyl)piperazine] was 945%.
Take `O=C(c1ccccc1)N1CCN(C2CN(C(=O)c3ccc(S(=O)(=O)c4cccc(Cl)c4)cc3)C2)CC1` [Cpd 433, 1-[1-({4-[(3-Chlorophenyl)sulfonyl]phenyl}carbonyl)azetidin-3-yl]-4-(phenylcarbonyl)piperazine]: in experiment [2] (compound 1 μM), the 2-AG accumulation, % of vehicle control at 1 µM is 159%.
